Assay results as given in patent US20040220148A1, “5-Membered ring heterocycles as inhibitors of leucocyte adhesion and as VLA-4 antagonists” (Aventis Pharma Deutschland GmbH, priority 1996, published 2004).
Counter-ions that a name gives are not always drawn.

The molecules below were run against T1, VLA-4 integrins on human U937 cells (interaction between VCAM-1 and VLA-4) (Homo sapiens, UniProt P05556+P13612) (assay: U937/VCAM-1 cell adhesion test (adhesion of U937 cells to hVCAM-1(1-3)-IgG)). Conditions: concentration leading to 50% inhibition of adhesion.
T1 construct: the VLA-4 integrins, are offered in their natural form as surface molecules on human U937 cells; host or cells: U937 cells (VLA-4, endogenous); the partner hVCAM-1(1-3)-IgG came from the supernatant of transfected COS cells (ATCC CRL1651)
Assay type: cell-based
Excerpt: As a test method for the activity of the compounds of the formula I on the interaction between VCAM-1 and VLA-4, an assay which is specific for this interaction is used. The cellular binding components, i.e. the VLA-4 integrins, are offered in their natural form as surface molecules on human U937 cells (ATCC CRL 1593) which belong to the group of leucocytes. As specific binding components, recombinant soluble fusion proteins prepared by genetic engineering and consisting of the extracytoplasmic domains of human VCAM-1 and the constant region of a human immunoglobulin of the subclass IgG1 are used.
Assay for the Measurement of the Adhesion of U937 Cells (ATCC CRL 1593) to hVCAM-1 (1-3)-IgG
1. Preparation of Human VCAM-1(1-3)-IgG and Human CD4-IgG
A genetic construct for the expression of the extracellular domains of human VCAM-1 was employed, associated with the genetic sequence of the heavy chain of human immunoglobulin IgG1 (hinge, CH2 and CH3 regions), from Dr. Brian Seed, Massachusetts General Hospital, Boston, USA. The soluble fusion protein hVCAM-1(1-3)-IgG contained the three amino-terminal extracellular immunoglobulin-like domains of human VCAM-1 (Damle and Aruffo, Proc. Natl. Acad. Sci. USA 1991, 88, 6403). CD4-IgG (Zettlmeissl et al, DNA and Cell Biology 1990, 9, 347) served as a fusion protein for negative controls. The recombinant proteins were expressed as soluble proteins after DEAE/dextran-mediated DNA-transfection in COS cells (ATCC CRL1651) according to standard procedures (Ausubel et al., Current protocols in molecular biology, John Wiley & Sons, Inc., 1994).
2. Assay for Measurement of the Adhesion of U937 Cells to hVCAM-1(1-3)-IgG
2.1 96-well microtiter test plates (Nunc Maxisorb) were incubated at room temperature for 1 hour with 100 μl/well of a goat-anti-human IgG antibody solution (10 μg/ml in 50 mM tris, pH 9.5). After removing the antibody solution, washing was carried out once with PBS.
2.2 150 μl/well of a blocking buffer (1% BSA in PBS) were incubated on the plates at room temperature for 0.5 hours. After removing the blocking buffer, washing was carried out once with PBS.
2.3 100 μl per well of a cell culture supernatant of transfected COS cells were incubated on the plates at room temperature for 1.5 hours. The COS cells were transfected with a plasmid which codes for the three N-terminal immunoglobulin-like domains of VCAM-1, coupled to the Fc part of human IgG1 (hVCAM-1(1-3)-IgG). The content of hVCAM-1 (1-3)-IgG was about […]. After removing the culture supernatant, washing was carried out once with PBS.
2.4 The plates were incubated at room temperature for 20 minutes with […] of Fc receptor blocking buffer (1 mg/ml of γ-globulin, 100 mM NaCl, 100 μM MgCl2, 100 μM MnCl2, 100 μM CaCl2, 1 mg/ml BSA in 50 mM HEPES, pH 7.5). After removing the Fc receptor blocking buffer, washing was carried out once with PBS.
2.5 20 μl of binding buffer (100 mM NaCl, 100 μM MgCl2, 100 μM MgCl2, 100 μM CaCl2, 1 mg/ml BSA in 50 mM HEPES, pH 7.5), were initially introduced, the substances to be tested were added in 10 μl of binding buffer and the mixture was incubated for 20 minutes. As controls, antibodies against VCAM-1 (BBT, No. BBA6) and against VLA-4
(Immunotech, No. 0764) were used.
2.6 U937 cells were incubated in Fc receptor blocking buffer for 20 minutes and then pipetted in at a concentration of 1×10^6/ml and in an amount of 100 μl per well ([…]).
2.7 The plates were slowly immersed at an angle of 45° in stop buffer (100 mM NaCl, 100 μM MgCl2, 100 μM MnCl2, 100 μM CaCl2 in 25 mM Tris, pH 7.5) and shaken off. The process was repeated.
2.8 50 μl/well of a dye solution (16.7 μg/ml of Hoechst dye 33258, 4% formaldehyde, 0.5% Triton X-100 in PBS) were then incubated on the plates for 15 minutes.
2.9 The plates were shaken off and slowly immersed at an angle of 45° in stop buffer (100 mM NaCl, 100 μM MgCl2, 100 μM MnCl2, 100 μM CaCl2 in 25 mM Tris, pH 7.5). The process was repeated. […]

T1 sequence (P13612 34-1032): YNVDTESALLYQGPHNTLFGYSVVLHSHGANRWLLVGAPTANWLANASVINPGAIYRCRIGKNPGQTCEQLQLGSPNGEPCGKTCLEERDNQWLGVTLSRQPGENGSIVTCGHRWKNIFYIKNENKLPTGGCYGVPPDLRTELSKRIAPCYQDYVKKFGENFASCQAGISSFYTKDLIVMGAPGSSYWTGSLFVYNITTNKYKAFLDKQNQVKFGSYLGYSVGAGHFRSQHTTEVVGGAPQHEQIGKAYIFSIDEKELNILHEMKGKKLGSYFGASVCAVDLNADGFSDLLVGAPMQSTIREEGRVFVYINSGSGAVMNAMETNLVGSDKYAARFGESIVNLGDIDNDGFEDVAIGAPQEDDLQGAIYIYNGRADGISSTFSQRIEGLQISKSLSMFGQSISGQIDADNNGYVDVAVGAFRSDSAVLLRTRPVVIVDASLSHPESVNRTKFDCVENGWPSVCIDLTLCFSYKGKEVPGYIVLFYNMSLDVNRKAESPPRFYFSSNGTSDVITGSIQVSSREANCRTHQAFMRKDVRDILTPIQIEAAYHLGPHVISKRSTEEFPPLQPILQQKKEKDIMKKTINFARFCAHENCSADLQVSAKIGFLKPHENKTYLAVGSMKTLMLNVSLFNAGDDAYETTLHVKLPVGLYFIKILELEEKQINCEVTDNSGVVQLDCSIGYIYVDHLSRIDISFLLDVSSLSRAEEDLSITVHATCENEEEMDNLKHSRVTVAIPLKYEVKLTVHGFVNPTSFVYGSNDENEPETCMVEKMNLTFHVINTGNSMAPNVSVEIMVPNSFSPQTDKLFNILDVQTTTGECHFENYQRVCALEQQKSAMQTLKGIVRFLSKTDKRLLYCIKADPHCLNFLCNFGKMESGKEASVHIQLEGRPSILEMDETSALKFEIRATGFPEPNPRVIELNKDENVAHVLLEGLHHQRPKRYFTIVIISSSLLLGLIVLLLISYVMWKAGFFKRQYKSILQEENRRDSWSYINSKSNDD
T1 sequence (P05556 21-798): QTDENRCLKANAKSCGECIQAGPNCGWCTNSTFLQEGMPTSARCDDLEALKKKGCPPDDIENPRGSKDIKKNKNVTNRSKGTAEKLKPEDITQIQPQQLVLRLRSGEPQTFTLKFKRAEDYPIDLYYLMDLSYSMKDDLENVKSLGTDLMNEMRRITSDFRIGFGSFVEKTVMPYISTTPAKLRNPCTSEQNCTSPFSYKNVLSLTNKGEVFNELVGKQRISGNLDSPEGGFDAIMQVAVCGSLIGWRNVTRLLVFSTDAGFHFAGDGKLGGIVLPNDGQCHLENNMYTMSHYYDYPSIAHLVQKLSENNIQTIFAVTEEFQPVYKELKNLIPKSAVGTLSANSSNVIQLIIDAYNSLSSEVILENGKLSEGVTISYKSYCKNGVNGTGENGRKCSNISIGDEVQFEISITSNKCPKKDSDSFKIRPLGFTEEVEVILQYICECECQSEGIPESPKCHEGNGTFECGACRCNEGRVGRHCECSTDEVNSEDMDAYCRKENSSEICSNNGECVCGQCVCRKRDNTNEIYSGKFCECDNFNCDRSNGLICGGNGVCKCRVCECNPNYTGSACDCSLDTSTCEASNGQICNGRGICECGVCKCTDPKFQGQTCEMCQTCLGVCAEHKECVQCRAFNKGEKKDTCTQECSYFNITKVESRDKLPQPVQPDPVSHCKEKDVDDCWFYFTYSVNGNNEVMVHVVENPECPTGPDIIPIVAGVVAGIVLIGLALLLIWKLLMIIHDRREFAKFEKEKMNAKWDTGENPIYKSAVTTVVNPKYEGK

Structure (SMILES) | IC50 [µM]
CC1(c2ccc(C(=N)N)cc2)C(=O)N(CC(=O)N[C@@H](CC(=O)O)C(=O)N[C@H](C(=O)O)c2ccccc2)C(=O)N1Cc1ccccc1 (stereo partly drawn) [Example 4, ((R,S)-4-(4-(Amino-imino-methyl)phenyl)-3-benzyl-4-methyl-2,5-dioxoimidazolidin-1-yl)acetyl-L-aspartyl-L-phenylglycine] | 1.1
C[C@@]1(c2ccc(C(=N)N)cc2)C(=O)N(CC(=O)N[C@@H](CC(=O)O)C(=O)N[C@H](C(=O)O)c2ccccc2)C(=O)N1Cc1ccc2ccccc2c1 [Example 9, ((R,S)-4-(4-(Amino-imino-methyl)phenyl)-3-((2-naphthyl)methyl)-4-methyl-2,5-dioxoimidazolidin-1-yl)acetyl-L-aspartyl-L-phenylglycine] | 0.5
CN(C(=O)CN1C(=O)N(Cc2ccc(-c3ccccc3)cc2)C(C)(c2ccc(C(=N)N)cc2)C1=O)[C@@H](CC(=O)O)C(=O)N[C@H](C(=O)O)c1ccccc1 (stereo partly drawn) [Example 18, ((R,S)-4-(4-(Amino-imino-methyl)phenyl)-3-((4-biphenylyl)methyl)-4-methyl-2,5-dioxoimidazolidin-1-yl)acetyl-L-N-methyl-aspartyl-L-phenylglycine] | 0.09
N=C(N)c1ccc(C2(Cc3ccccc3)C(=O)N(CC(=O)N[C@@H](CC(=O)O)C(=O)N[C@H](C(=O)O)c3ccccc3)C(=O)N2Cc2ccccc2)cc1 (stereo partly drawn) [Example 20, ((R,S)-4-(4-(Amino-imino-methyl)phenyl)-3,4-dibenzyl-2,5-dioxo-imidazolidin-1-yl)acetyl-L-aspartyl-L-phenylglycine] | 2
CC1(c2ccc(C(=N)N)cc2)C(=O)N(CC(=O)NC(CC(=O)O)c2ccccc2)C(=O)N1Cc1ccccc1 [Example 33, (R,S)-3-(((R,S)-4-(4-(Amino-imino-methyl)phenyl)-3-benzyl-4-methyl-2,5-dioxoimidazolidin-1-yl)acetylamino)-3-phenylpropionic acid hydrochloride] | 45
CCN1C(=O)N(CC(=O)N[C@@H](CC(=O)O)C(=O)N[C@H](C(=O)O)c2ccccc2)C(=O)[C@@H]1CCCN [Example 35, ((S)-4-(3-Aminopropyl)-3-ethyl-2,5-dioxoimidazolidin-1-yl)acetyl-L-aspartyl-L-phenylglycine] | 250
CCN1C(=O)N(CC(=O)N[C@@H](CC(=O)O)C(=O)N[C@@H](C(=O)O)c2ccccc2)C(=O)[C@@H]1CCCNC(=N)N [Example 36, ((S)-4-(3-Guanidinopropyl)-3-ethyl-2,5-dioxoimidazolidin-1-yl)acetyl-L-aspartyl-D-phenylglycine] | 250
NCCC[C@H]1C(=O)N(CC(=O)N[C@@H](CC(=O)O)C(=O)N[C@H](C(=O)O)c2ccccc2)C(=O)N1Cc1ccccc1 [Example 37, ((S)-4-(3-Aminopropyl)-3-benzyl-2,5-dioxoimidazolidin-1-yl)acetyl-L-aspartyl-L-phenylglycine] | 200
N=C(N)NCCC[C@H]1C(=O)N(CC(=O)N[C@@H](CC(=O)O)C(=O)N[C@H](C(=O)O)c2ccccc2)C(=O)N1Cc1ccccc1 [Example 38, ((S)-4-(3-Guanidinopropyl)-3-benzyl-2,5-dioxoimidazolidin-1-yl)acetyl-L-aspartyl-L-phenylglycine] | 45
C[C@]1(c2ccc(C(=N)N)cc2)C(=O)N(CC(=O)N[C@@H](CC(=O)O)C(=O)N[C@H](C(=O)O)c2ccccc2)C(=O)N1Cc1ccc2ccccc2c1 [Example 41, ((S)-4-(4-(Amino-imino-methyl)phenyl)-3-((2-naphthyl)methyl)-4-methyl-2,5-dioxoimidazolidin-1-yl)acetyl-L-aspartyl-L-phenylglycine] | 0.28
CC1(c2ccc(C(=N)N)cc2)C(=O)N(CC(=O)NC[C@H](NC(=O)OCc2ccccc2)C(=O)O)C(=O)N1Cc1ccccc1 (stereo partly drawn) [Example 46, (S)-3-(((R,S)-4-(4-(Amino-imino-methyl)phenyl)-3-benzyl-4-methyl-2,5-dioxoimidazolidin-1-yl)acetylamino)-2-benzyloxycarbonylaminopropionic acid] | 6.8
COc1ccc(C(CC(=O)O)NC(=O)CN2C(=O)N(Cc3ccccc3)C(C)(c3ccc(C(=N)N)cc3)C2=O)cc1OC [Example 57, (R,S)-3-(((R,S)-4-(4-(Amino-imino-methyl)phenyl)-3-benzyl-methyl-2,5-dioxoimidazolidin-1-yl)acetylamino)-3-(3,4-dimethoxyphenyl)propionic acid] | 17.5
CC1(c2ccc(C(=N)N)cc2)C(=O)N(CC(=O)NC(CC(=O)O)c2ccc3c(c2)OCCO3)C(=O)N1Cc1ccccc1 [Example 58, (R,S)-3-(((R,S)-4-(4(Amino-imino-methyl)phenyl)-3-benzyl-4-methyl-2,5-dioxoimidazolidin-1-yl)acetylamino)-3-(3,4-ethylenedioxyphenyl)propionic acid] | 25
COc1cc(OC)cc(C(CC(=O)O)NC(=O)CN2C(=O)N(Cc3ccccc3)C(C)(c3ccc(C(=N)N)cc3)C2=O)c1 [Example 59, (R,S)-3-(((R,S)-4-(4-(Amino-imino-methyl)phenyl)-3-benzyl-4-methyl-2,5-dioxoimidazolidin-1-yl)acetylamino)-3-(3,5-dimethoxyphenyl)propionic acid] | 27.5
CC(C(=O)N[C@@H](CC(=O)O)C(=O)N[C@H](C(=O)O)c1ccccc1)N1C(=O)N(Cc2ccccc2)C(C)(c2ccc(C(=N)N)cc2)C1=O (stereo partly drawn) [Example 62, ((R,S)-2-((R,S)-4-(4-(Amino-imino-methyl)phenyl)-3-benzyl-4-methyl-2,5-dioxoimidazolidin-1-yl)-2-methylacetyl)-L-aspartyl-L-phenylglycine] | 0.37
C[C@]1(c2ccc(C(=N)N)cc2)C(=O)N(CC(=O)N[C@@H](CC(=O)O)C(=O)N[C@H](C(=O)O)c2ccccc2)C(=O)N1Cc1ccccc1 [Example 63] | 0.22
CC1(c2ccc(C(=N)N)cc2)C(=O)N(CC(=O)NC[C@H](NC(=O)OCc2ccc(C(F)(F)F)cc2)C(=O)O)C(=O)N1Cc1ccccc1 (some centres unmarked) [Example 67] | 2.25
CC1(c2ccc(CNC(=N)N)cc2)C(=O)N(CC(=O)N[C@@H](CC(=O)O)C(=O)N[C@H](C(=O)O)c2ccccc2)C(=O)N1Cc1ccccc1 (stereo partly drawn) [Example 69, ((R,S)-4-(4-Guanidinomethylphenyl)-3-benzyl-4-methyl-2,5-dioxo-imidazolidin-1-yl)acetyl-L-aspartyl-L-phenylglycine] | 4.5
CC1(c2ccc(N)cc2)C(=O)N(CC(=O)N[C@@H](CC(=O)O)C(=O)N[C@H](C(=O)O)c2ccccc2)C(=O)N1Cc1ccccc1 (stereo partly drawn) [Example 70, ((R,S)-4-(4-Aminophenyl)-3-benzyl-4-methyl-2,5-dioxoimidazolidin-1-yl)acetyl-L-aspartyl-L-phenylglycine] | 3
CC1(c2ccc(NC(=N)N)cc2)C(=O)N(CC(=O)N[C@@H](CC(=O)O)C(=O)N[C@H](C(=O)O)c2ccccc2)C(=O)N1Cc1ccccc1 (stereo partly drawn) [Example 71, ((R,S)-4-(4-Guanidinophenyl)-3-benzyl-4-methyl-2,5-dioxoimidazolidin-1-yl)acetyl-Laspartyl-L-phenylglycine] | 3.25
